Reference: ChEMBL document CHEMBL6153028, “Understanding the synergistic sensitization of natural products and antibiotics: An effective strategy to combat MRSA” (2025)

Legend:
Format in all cases: functional
[1] = test system: Staphylococcus aureus; test: Synergistic antimicrobial activity against methicillin-resistant Staphylococcus aureus assessed as fractional inhibitory concentration index in presence of cefixime incubated for 24 hrs by checkerboard assay
[2] = test system: Staphylococcus aureus; test: Synergistic antimicrobial activity against methicillin-resistant Staphylococcus aureus assessed as fractional inhibitory concentration index in presence of amoxicillin incubated for 24 hrs by checkerboard assay
[3] = test system: Staphylococcus aureus; test: Synergistic antimicrobial activity against methicillin-resistant Staphylococcus aureus assessed as fractional inhibitory concentration index in presence of Ceftriaxone incubated for 24 hrs by checkerboard assay
[4] = test system: Staphylococcus aureus; test: Synergistic antimicrobial activity against methicillin-resistant Staphylococcus aureus assessed as fractional inhibitory concentration index in presence of ampicillin incubated for 24 hrs by checkerboard assay
[5] = test system: Staphylococcus aureus; test: Synergistic antimicrobial activity against methicillin-resistant Staphylococcus aureus assessed as fractional inhibitory concentration index in presence of penicillin G incubated for 24 hrs by checkerboard assay
[6] = test system: Staphylococcus aureus; test: Synergistic antibacterial activity against methicillin resistant Staphylococcus aureus assessed as fractional inhibitory concentration index in presence of oxacillin incubated for 24 hrs by checkerboard assay
[7] = test system: Staphylococcus aureus; test: Synergistic antibacterial activity against methicillin resistant Staphylococcus aureus assessed as fractional inhibitory concentration index in presence of ciprofloxacin
[8] = test system: Staphylococcus aureus; test: Synergistic antibacterial activity against methicillin resistant Staphylococcus aureus assessed as fractional inhibitory concentration index in presence of gentamicin
[9] = test system: Staphylococcus aureus; test: Synergistic antibacterial activity against methicillin resistant Staphylococcus aureus assessed as fractional inhibitory concentration index in presence of norfloxacin; details: time 24 hrs
[10] = test system: Staphylococcus aureus; test: Synergistic antimicrobial activity against methicillin-resistant Staphylococcus aureus assessed as fractional inhibitory concentration index in presence of minocycline by checkerboard assay
[11] = test system: Staphylococcus aureus; test: Synergistic antimicrobial activity against methicillin-resistant Staphylococcus aureus assessed as fractional inhibitory concentration index in presence of fosfomycin by checkerboard assay
[12] = test system: Staphylococcus aureus; test: Synergistic antimicrobial activity against methicillin-resistant Staphylococcus aureus assessed as fractional inhibitory concentration index in presence of chloramphenicol by checkerboard assay
[13] = test system: Staphylococcus aureus; test: Synergistic antimicrobial activity against methicillin-resistant Staphylococcus aureus assessed as fractional inhibitory concentration index in presence of gentamicin by checkerboard assay
[14] = test system: Staphylococcus aureus; test: Synergistic antibacterial activity against methicillin resistant Staphylococcus aureus clinical isolate 003 assessed as fractional inhibitory concentration in presence of norfloxacin
[15] = test system: Staphylococcus aureus; test: Synergistic antibacterial activity against methicillin resistant Staphylococcus aureus assessed as fractional inhibitory concentration index in presence of erythromycin incubated for 24 hrs by checkerboard assay
[16] = test system: Staphylococcus aureus; test: Antibacterial activity against methicillin-resistant Staphylococcus aureus assessed as reduction in microbial growth by CLSI based broth microdilution method
[17] = test system: Staphylococcus aureus; test: Synergistic antimicrobial activity against methicillin resistant Staphylococcus aureus assessed as fractional inhibitory concentration index incubated for 24 hrs in presence of oxytetracycline by checkerboard assay
[18] = test system: Staphylococcus aureus; test: Synergistic antimicrobial activity against methicillin resistant Staphylococcus aureus assessed as fractional inhibitory concentration index incubated for 24 hrs in presence of linezolid by checkerboard assay
[19] = test system: Staphylococcus aureus; test: Synergistic antimicrobial activity against methicillin resistant Staphylococcus aureus assessed as fractional inhibitory concentration index incubated for 24 hrs in presence of Oxacillin by checkerboard assay
[20] = test system: Staphylococcus aureus; test: Synergistic antimicrobial activity against methicillin resistant Staphylococcus aureus assessed as fractional inhibitory concentration index incubated for 24 hrs in presence of daptomycin by checkerboard assay
[21] = test system: Staphylococcus aureus; test: Synergistic antibacterial activity against methicillin resistant Staphylococcus aureus assessed as fractional inhibitory concentration index in presence of ceftazidime
[22] = test system: Staphylococcus aureus; test: Synergistic antibacterial activity against methicillin resistant Staphylococcus aureus assessed as fractional inhibitory concentration index in presence of levofloxacin
[23] = test system: Staphylococcus aureus; test: Synergistic antimicrobial activity against methicillin-resistant Staphylococcus aureus CCARM 3089 assessed as fractional inhibitory concentration index in presence of oxacillin incubated for 24 hrs by checkerboard assay
[24] = test system: Staphylococcus aureus; test: Synergistic antimicrobial activity against methicillin-resistant Staphylococcus aureus CCARM 3089 assessed as fractional inhibitory concentration index in presence of Chloramphenicol incubated for 24 hrs by checkerboard assay
[25] = test system: Staphylococcus aureus; test: Synergistic antimicrobial activity against methicillin resistant Staphylococcus aureus assessed as fractional inhibitory concentration index incubated for 24 hrs in presence of rifampicin by checkerboard assay
[26] = test system: Staphylococcus aureus; test: Synergistic antimicrobial activity against methicillin resistant Staphylococcus aureus assessed as fractional inhibitory concentration index incubated for 24 hrs in presence of Norfloxacin by checkerboard assay
[27] = test system: Staphylococcus aureus; test: Synergistic antimicrobial activity against methicillin-resistant Staphylococcus aureus assessed as fractional inhibitory concentration index incubated for 24 hrs in presence of ampicillin by checkerboard assay
[28] = test system: Staphylococcus aureus; test: Synergistic antibacterial activity against methicillin resistant Staphylococcus aureus assessed as fractional inhibitory concentration index in presence of ampicillin
[29] = test system: Staphylococcus aureus; test: Synergistic antibacterial activity against methicillin resistant Staphylococcus aureus assessed as fractional inhibitory concentration index in presence of ceftriaxone
[30] = test system: Staphylococcus aureus; test: Synergistic antimicrobial activity against methicillin-resistant Staphylococcus aureus assessed as fractional inhibitory concentration index in presence of teicoplanin by checkerboard assay
[31] = test system: Staphylococcus aureus; test: Synergistic antibacterial activity against methicillin resistant Staphylococcus aureus assessed as fractional inhibitory concentration index in presence of tetracycline
[32] = test system: Staphylococcus aureus; test: Synergistic antibacterial activity against […] Staphylococcus aureus ATCC 29213 assessed as fractional inhibitory concentration index incubated for 24 hrs in presence of amoxicillin by checkerboard assay
[33] = test system: Staphylococcus aureus; test: Synergistic antibacterial activity against […] Staphylococcus aureus ATCC 29213 assessed as fractional inhibitory concentration index incubated for 24 hrs in presence of pencillin by checkerboard assay
[34] = test system: Staphylococcus aureus; test: Synergistic antibacterial activity against […] Staphylococcus aureus ATCC 29213 assessed as fractional inhibitory concentration index incubated for 24 hrs in presence of ciprofloxacin by checkerboard assay

## O=c1cc(-c2ccccc2)c2cc(O)c(O)cc2o1
[1]
  fractional inhibitory concentration index (FICI): <0.5
[2]
  fractional inhibitory concentration index (FICI): <0.5
[3]
  fractional inhibitory concentration index (FICI): <0.5
[4]
  fractional inhibitory concentration index (FICI): <0.5
[5]
  fractional inhibitory concentration index (FICI): <0.5

## CC(C)=CCc1c(O)cc(O)c2c1O[C@H](c1ccc(O)cc1)CC2=O
[6]
  fractional inhibitory concentration index (FICI): 0.31
[7]
  fractional inhibitory concentration index (FICI): 0.5
[8]
  fractional inhibitory concentration index (FICI): 0.25
[9]
  fractional inhibitory concentration index (FICI): 0.5

## COc1cc(OC/C=C(\C)CCC=C(C)C)c2ccc(=O)oc2c1
[10]
  fractional inhibitory concentration index (FICI): <0.5
[11]
  fractional inhibitory concentration index (FICI): <0.5
[12]
  fractional inhibitory concentration index (FICI): <0.5
[13]
  fractional inhibitory concentration index (FICI): <0.5

## CC(C)=CCC/C(C)=C\C=O
[14]
  fractional inhibitory concentration index (FICI): <0.5
[15]
  fractional inhibitory concentration index (FICI): <0.5

## C=CC(C)(C)c1cc(-c2coc3cc(O)cc(O)c3c2=O)c(CC=C(C)C)c(O)c1O
[16]
  MIC: 12.5 µg/mL

## CC[C@@H]1CC[C@@]2(C)C(C)=CCC[C@@H]2[C@@]1(C)CCC1=CC(=O)O[C@@H]1O
[17]
  fractional inhibitory concentration index (FICI): 0.321
[18]
  fractional inhibitory concentration index (FICI): 0.34
[19]
  fractional inhibitory concentration index (FICI): 0.223
[20]
  fractional inhibitory concentration index (FICI): 0.32

## C/C(=C\C(O)=C\O)[C@@H]1Oc2cc(O[C@@H]3O[C@@H](C)[C@H](O)[C@@H](O)[C@H]3O)cc(O)c2C(=O)[C@H]1O
[21]
  fractional inhibitory concentration index (FICI): 0.187
[22]
  fractional inhibitory concentration index (FICI): 0.25

## COc1c(C)c(O)c(CC=C(C)C)c(O)c1Cc1c(O)c(C(C)=O)c(O)c(CC=C(C)C)c1OC
[23]
  fractional inhibitory concentration index (FICI): 0.008
[24]
  fractional inhibitory concentration index (FICI): 0.393

## Oc1ccc([C@H]2Oc3cc(O)cc4c3[C@@H]2c2cc(O)cc3c2[C@H](c2cc(O)cc5c2[C@H]4[C@@H](c2ccc(O)cc2)O5)[C@@H](c2ccc(O)cc2)O3)cc1
[25]
  fractional inhibitory concentration index (FICI): <0.5
[26]
  fractional inhibitory concentration index (FICI): <0.5
[27]
  fractional inhibitory concentration index (FICI): <0.5

## O=c1cc(-c2ccc(O)cc2)oc2cc(O)cc(O)c12 [APIGENIN]
[28]
  fractional inhibitory concentration index (FICI): 0.18
[29]
  fractional inhibitory concentration index (FICI): 0.18

## COc1cc(OC)c2ccc(=O)oc2c1OCC=C(C)C [ARTANIN]
[30]
  fractional inhibitory concentration index (FICI): <0.5

## COc1cc2oc(-c3ccc(O)cc3O)c(CC=C(C)C)c(=O)c2c(O)c1/C=C/C(C)C [ARTOCARPIN]
[31]
  fractional inhibitory concentration index (FICI): 0.24
[28]
  fractional inhibitory concentration index (FICI): 0.37
[9]
  fractional inhibitory concentration index (FICI): 0.15

## O=c1cc(-c2ccccc2)oc2cc(O)c(O)c(O)c12 [BAICALEIN]
[32]
  fractional inhibitory concentration index (FICI): 0.14
[33]
  fractional inhibitory concentration index (FICI): 0.14
[34]
  fractional inhibitory concentration index (FICI): <0.5
